Values of other authors, collected in patent US7432394B2, “Resolution of α-(phenoxy) phenylacetic acid derivatives with naphthyl-alkylamines” (Metabolex, Inc., priority 2005, dated 2008).

Target: cytochrome P450 2C9 (Homo sapiens, UniProt P11712)
Sequence (P11712 whole entry): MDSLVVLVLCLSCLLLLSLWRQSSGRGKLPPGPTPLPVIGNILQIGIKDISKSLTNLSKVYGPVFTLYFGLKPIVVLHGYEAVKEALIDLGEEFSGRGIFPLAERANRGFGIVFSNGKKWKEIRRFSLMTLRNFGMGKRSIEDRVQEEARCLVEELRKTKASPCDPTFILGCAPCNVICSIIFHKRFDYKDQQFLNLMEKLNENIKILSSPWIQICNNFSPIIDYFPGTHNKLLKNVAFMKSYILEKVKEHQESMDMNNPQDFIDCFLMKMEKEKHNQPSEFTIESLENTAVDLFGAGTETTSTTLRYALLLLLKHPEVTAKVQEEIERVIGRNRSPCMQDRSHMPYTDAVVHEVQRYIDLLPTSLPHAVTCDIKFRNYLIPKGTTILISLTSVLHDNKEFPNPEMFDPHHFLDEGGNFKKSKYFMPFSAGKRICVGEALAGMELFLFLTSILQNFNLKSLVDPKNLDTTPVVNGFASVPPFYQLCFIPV

| SMILES | ability to inhibit cytochrome P450 2C9 compared to the (+)-enantiomer (fold less active than the (+)-enantiomer of halofenic acid) | inhibition of cytochrome P450 2C9 (racemic acid, result in words) |
| --- | --- | --- |
| O=C(O)C(Oc1cccc(C(F)(F)F)c1)c1ccc(Cl)cc1 (single isomer, unassigned; (-)) [(−)-enantiomer of halofenic acid, (−)-4-chloro-α-(3-trifluoromethylphenoxy)phenylacetic acid] | about twenty-fold less active |  |
| O=C(O)C(Oc1cccc(C(F)(F)F)c1)c1ccc(Cl)cc1 (racemic) [halofenic acid, (4-chlorophenyl)(3-trifluoromethylphenoxy)acetic acid] |  | inhibits cytochrome P450 2C9 |
